81 compounds from a flash point compilation (Sun et al. 2020) can be followed below.

Take `S=C([S-])NCCNC(=S)[S-].S=C([S-])NCCNC(=S)[S-].[Mn+2].[Zn+2]`: the flash point worked out at 138.00 °C.
To `S=C([S-])NCCNC(=S)[S-].[Mn+2]` belongs 138.00 °C; to `NCCNCCNCCNCCN`, 163.00 °C; to `Cl.O=C(O)CCP(CCC(=O)O)CCC(=O)O`, 202.00 °C.
To `O=C1OC(=O)c2cccc3cccc1c23` belongs 272.00 °C; to `O=P1(N(CCCl)CCCl)NCCCO1` (stereo unspecified), 113.00 °C; to `C=C1C(CCl)(CCl)C2(Cl)C(Cl)C(Cl)C1(Cl)C2(Cl)Cl` (stereo unspecified), 29.00 °C.
For `C=C1CCC=C(C)CC[C@@H]2[C@@H]1CC2(C)C`, the flash point is 101.00 °C.
To `CC(C)(C)c1cc(CCC(=O)OCC(COC(=O)CCc2cc(C(C)(C)C)c(O)c(C(C)(C)C)c2)(COC(=O)CCc2cc(C(C)(C)C)c(O)c(C(C)(C)C)c2)COC(=O)CCc2cc(C(C)(C)C)c(O)c(C(C)(C)C)c2)cc(C(C)(C)C)c1O` belongs 297.00 °C; to `CC(C)(c1ccc(OC[C@@H]2CO2)cc1)c1ccc(OC[C@@H]2CO2)cc1`, 79.00 °C.
To `CC(C)=CCC/C(C)=C\CC/C(C)=C/CC/C=C(\C)CC/C=C(\C)CCC=C(C)C` belongs 110.00 °C; to `CC(C)C(=O)OCC(C)(C)C(OC(=O)C(C)C)C(C)C` (stereo unspecified), 121.00 °C.
To `CC(C)Nc1nc(Cl)nc(NC2CC2)n1` belongs 163.00 °C; to `CC(C)[C@H](C(=O)O[C@H](C#N)c1cccc(Oc2ccccc2)c1)c1ccc(Cl)cc1`, 256.00 °C; to `CC1(C)C2CCC1(C)C(OC(=O)CSC#N)C2` (stereo unspecified), 82.00 °C.
`Cc1c(COC(=O)C2C(C=C(Cl)C(F)(F)F)C2(C)C)cccc1-c1ccccc1` (stereo unspecified): the flash point is 165.00 °C.
To `CC1=C(C(=O)Nc2ccccc2)S(=O)(=O)CCO1` belongs 219.00 °C.
To `Cc1cc(O)c(C(C)(C)C)cc1Sc1cc(C(C)(C)C)c(O)cc1C` belongs 216.00 °C; to `C=Cc1ccc(C)cc1.C=Cc1cccc(C)c1.C=Cc1ccccc1C`, 52.00 °C.
To `CC1=C[C@H]2C(=O)O[C@H]3C[C@@H](C/C=C(\C)C[C@@H](C)/C=C/C=C4\CO[C@H]([C@@H]1O)[C@@]42O)O[C@@]1(CC[C@H](C)[C@@H](C)O1)C3` belongs 43.00 °C; to `C=C(C)C1CCC2=CC(=O)CC(C)C2(C)C1` (stereo unspecified), 100.00 °C.
The compound `CCC1CCC(CCC(=O)[O-])C1.CCC1CCC(CCC(=O)[O-])CC1.[Cu+2]` (stereo unspecified) gave a flash point of 38.00 °C.
To `CCCCC(CC)Cc1c(C(=O)OOOC(=O)c2cc(O)c(O)c(O)c2)cc(O)c(O)c1O` (stereo unspecified) belongs 232.00 °C; to `CCCCCC1OC1CC1OC1CCCCCCCC(=O)OCC(COC(=O)CCCCCCCC1OC1CC1OC1CCCCC)OC(=O)CCCCCCCC1OC1CC1OC1CCCCC` (stereo unspecified), 307.00 °C; to `CCCCCCCCCc1ccc(OCCOCCOCCOCCOCCOCCOCCOCCOCCO)cc1`, 197.00 °C.
Take `CCCCOC(=O)COC(=O)c1ccccc1C(=O)OCCCC`: the flash point worked out at 199.00 °C.
To `CCCNCC(O)COc1ccccc1C(=O)CCc1ccccc1` (stereo unspecified) belongs 199.00 °C; to `CCCOP(=S)(OCCC)OP(=S)(OCCC)OCCC`, 149.00 °C; to `CCOP(=S)(OCC)Oc1cc(C)nc(N(CC)CC)n1`, 113.00 °C.
The compound `CCOP(=S)(OCC)Oc1ccc([N+](=O)[O-])cc1` had a flash point of 120.00 °C.
In turn, `CCOP(=S)(OCC)Oc1nc(Cl)c(Cl)cc1Cl` showed a flash point of 28.00 °C.
`CCOP(=S)(OCC)SCSC(C)(C)C` registered a flash point of 88.00 °C.
For `CCSC(C)CC1CC(=O)C(/C(CC)=N/OC/C=C/Cl)=C(O)C1` (stereo unspecified), the flash point stood at 72.00 °C.
To `COc1ccc2c3c1OC1C(O)C=CC4C(C2)N(C)CCC341` (stereo unspecified) belongs 75.00 °C; to `COC(C)(C)CCCC(C)C/C=C/C(C)=C/C(=O)OC(C)C` (stereo unspecified), 187.00 °C; to `COP(=O)(OC)OC1=C(Cl)C2C=CCC12` (stereo unspecified), 165.00 °C.
To `COP(=S)(OC)Oc1nc(Cl)c(Cl)cc1Cl` belongs 182.00 °C; to `COc1cc(CNC(=O)CCCC/C=C/C(C)C)ccc1O`, 113.00 °C; to `C[Si]1(C)O[Si](C)(C)O[Si](C)(C)O[Si](C)(C)O[Si](C)(C)O1`, 73.00 °C.
`Cc1nn(C)c(Oc2ccccc2)c1/C=N/OCc1ccc(C(=O)OC(C)(C)C)cc1` came in with a flash point of 85.00 °C.
The compound `O=C(OC[C@H]1O[C@@H](OC(=O)c2cc(O)c(O)c(OC(=O)c3cc(O)c(O)c(O)c3)c2)[C@H](OC(=O)c2cc(O)c(O)c(OC(=O)c3cc(O)c(O)c(O)c3)c2)[C@@H](OC(=O)c2cc(O)c(O)c(OC(=O)c3cc(O)c(O)c(O)c3)c2)[C@@H]1OC(=O)c1cc(O)c(O)c(OC(=O)c2cc(O)c(O)c(O)c2)c1)c1cc(O)c(O)c(OC(=O)c2cc(O)c(O)c(O)c2)c1` showed a flash point of 199.00 °C.
In turn, `O=c1[nH]cnc2c1ncn2[C@H]1C[C@H](O)[C@@H](COP(=O)(O)OP(=O)(O)O)O1` came in with a flash point of 229.00 °C.
To `OC[C@H]1O[C@@H](OC/C=C/c2ccccc2)[C@H](O)[C@@H](O)[C@@H]1O` belongs 187.00 °C; to `c1ccc(-c2ccccc2)cc1.c1ccc(Oc2ccccc2)cc1` [1,1'-biphenyl;phenoxybenzene], 124.00 °C; to `ClC(Cl)=C(Cl)C(Cl)=C(Cl)Cl` [1,1,2,3,4,4-hexachlorobuta-1,3-diene], 90.00 °C.
To `CCCCC(Cl)Cl` [1,1-dichloropentane] belongs 41.00 °C; to `N=C(N)N(c1ccccc1)c1ccccc1` [1,1-diphenylguanidine], 170.00 °C; to `C1CCC2CCCCC2C1` (stereo unspecified) [1,2,3,4,4a,5,6,7,8,8a-decahydronaphthalene], 57.00 °C.
`Cc1cc(C)c(C)c(C)c1` [1,2,3,5-tetramethylbenzene] displayed a flash point of 63.00 °C.
To `Clc1cccc(Cl)c1Cl` [1,2,3-trichlorobenzene] belongs 112.00 °C; to `Cc1cc(C)c(C)cc1C` [1,2,4,5-tetramethylbenzene], 54.00 °C; to `Clc1ccc(Cl)c(Cl)c1` [1,2,4-trichlorobenzene], 110.00 °C.
To `Cc1ccc(C)c(C)c1` [1,2,4-trimethylbenzene] belongs 44.00 °C; to `C=Cc1ccccc1C=C` [1,2-bis(ethenyl)benzene], 62.00 °C.
Turning to `ClCC(Br)CBr` (stereo unspecified) [1,2-dibromo-3-chloropropane], the flash point amounted to 77.00 °C.
To `Clc1ccc(-c2cccc(Cl)c2Cl)c(Cl)c1` [1,2-dichloro-3-(2,4-dichlorophenyl)benzene] belongs 141.00 °C.
To `FC(F)(F)c1ccc(Cl)c(Cl)c1` [1,2-dichloro-4-(trifluoromethyl)benzene] belongs 65.00 °C; to `ClC=CCl` [1,2-dichloroethene], 4.00 °C; to `CCc1ccccc1CC` [1,2-diethylbenzene], 57.00 °C.
To `c1cc2c3c(cccc3c1)CC2` [1,2-dihydroacenaphthylene] belongs 125.00 °C; to `O=c1ccc(=O)[nH][nH]1` [1,2-dihydropyridazine-3,6-dione], 300.00 °C; to `C=CCc1ccc(OC)c(OC)c1` [1,2-dimethoxy-4-prop-2-enylbenzene], 99.00 °C.
As for `Cc1ccc([N+](=O)[O-])cc1C` [1,2-dimethyl-4-nitrobenzene], the flash point was determined as 107.00 °C.
In the case of `NC(=Nc1ccccc1)Nc1ccccc1` [1,2-diphenylguanidine], the flash point is 198.00 °C.
To `Cc1ccc(C)cc1.Cc1cccc(C)c1.Cc1ccccc1C` [1,2-xylene;1,3-xylene;1,4-xylene] belongs 25.00 °C; to `Clc1cc(Cl)cc(Cl)c1` [1,3,5-trichlorobenzene], 107.00 °C.
To `Clc1cc(Cl)cc(-c2cc(Cl)cc(Cl)c2)c1` [1,3-dichloro-5-(3,5-dichlorophenyl)benzene] belongs 141.00 °C; to `O=[N+]([O-])c1cc(Cl)cc(Cl)c1` [1,3-dichloro-5-nitrobenzene], 140.00 °C.
To `CC(Cl)=CCCl` [1,3-dichlorobut-2-ene] belongs 27.00 °C; to `ClCCCCl` [1,3-dichloropropane], 21.00 °C.
`CCN(C(=O)N(CC)c1ccccc1)c1ccccc1` [1,3-diethyl-1,3-diphenylurea] showed a flash point of 150.00 °C.
Consider `Cc1cccc(C)c1[N+](=O)[O-]` [1,3-dimethyl-2-nitrobenzene], for which the flash point was 88.00 °C.
Consider `C1COCOC1` [1,3-dioxane], for which the flash point came out at 2.00 °C.
To `O=C(O)c1ccc2c(c1)C(=O)OC2=O` [1,3-dioxo-2-benzofuran-5-carboxylic acid] belongs 227.00 °C.
To `O=C1OCCO1` [1,3-dioxolan-2-one] belongs 143.00 °C; to `c1ccc(-c2cccc(-c3ccccc3)c2)cc1` [1,3-diphenylbenzene], 191.00 °C.
To `COc1cc(Cl)c(OC)cc1Cl` [1,4-dichloro-2,5-dimethoxybenzene] belongs 161.00 °C; to `O=[N+]([O-])c1cc(Cl)ccc1Cl` [1,4-dichloro-2-nitrobenzene], 135.00 °C.
In the case of `ClCC=CCCl` [1,4-dichlorobut-2-ene], the flash point was 53.00 °C.
To `ClCCCCCl` [1,4-dichlorobutane] belongs 40.00 °C.
To `c1ccc(-c2ccc(-c3ccccc3)cc2)cc1` [1,4-diphenylbenzene] belongs 207.00 °C.
